According to paper PMC11905876, “Population Pharmacokinetic Modeling of Certepetide in Human Subjects With Metastatic Pancreatic Ductal Adenocarcinoma” (Clinical Pharmacology in Drug Development, 2025):

Key:
[1] = Population pharmacokinetic analysis of certepetide plasma concentrations (first-in-human trial NCT03517176); type: in vivo; details: for WT on Vc, effect of weight on Vc / WT on Vp, effect of weight on Vp: power model exponent
Method: The clinical aspects of this study were conducted at 3 clinical sites in Australia. All subjects gave their informed consent. The study enrolled subjects with metastatic PDAC and was a rising dose design, with certepetide doses of 0.2, 0.8, 1.6, and 3.2 mg/kg body weight. Each subject received a certepetide monotherapy run‐in followed by 28‐day cycles of certepetide with standard‐of‐care chemotherapy (nab‐paclitaxel and gemcitabine), as previously described.[19] Each 28‐day cycle involved dosing with nab‐paclitaxel, gemcitabine, and certepetide on days 1, 8, and 15. In each dosing instance, nab‐paclitaxel was given first intravenously at a dose of 125 mg/m^2 over 30 minutes. This was immediately followed by the administration of certepetide as a slow intravenous push over 1 minute. Gemcitabine was given as an intravenous infusion at a dose of 1000 mg/m^2 over 30 minutes. Samples for PK analysis were collected before certepetide dosing and at 3, 15, and 30 minutes and 1, 3, and 6 hours after completion of the certepetide infusion. PK collections were performed during a monotherapy run‐in period and on day 1 of chemotherapy cycles 1 and 6. Modeling was performed with all available data.
Certepetide concentrations in human plasma were determined using a liquid chromatography‐tandem mass spectrometry method across a concentration range of 50.0‐2500 ng/mL, with 50.0 ng/mL as the lower limit of quantification. Briefly, a plasma sample was spiked with a deuterated internal standard and then precipitated by methanol. After centrifugation, the supernatant was transferred to a clean tube and evaporated under nitrogen. Following reconstitution with 5% methanol:water, the sample was injected into a Shimadzu Nexera UPLC that used a Kinetex EVO‐C18 column for separation using first mobile phase A (0.1% formic acid in deionized water) followed by mobile phase B (0.1% formic acid in methanol). The multiple reaction monitoring transition was monitored on an ABSciex QTRAP 5500 mass spectrometer. The transitions used for certepetide and deuterated certepetide (+6) were 494.9 → 70.1 and 497.7 → 75.0, respectively. For intraday runs, the average accuracy and precision were 10.2% and 9.6%, respectively, at a concentration of 150 ng/mL. The inter‐day accuracy and precision were 10.2% and 9.7%, respectively.
The PK analysis dataset was composed of actual dates and times of dose and concentration samples. Post‐dose PK concentration data below the limit of quantification were accounted for using the M1 method (ie, excluded from the analysis).[22] Subject covariates at baseline were derived from the source data at the baseline visit, the screening visit, or another visit before the start of certepetide administration.
NONMEM software (version 7.5.1, ICON Development Solutions)[23] was used to perform nonlinear mixed‐effects modeling. Data assembly, graphical analyses, and model simulations were performed using NONMEM (version 7.5.1) and R (version 4.3.1).
A 2‐compartment model with linear elimination was used as the starting point for model development. Interindividual variability was included in structural model parameters (eg, central volume of distribution [Vc], clearance [CL], peripheral volume of distribution [Vp], and distribution clearance [Q]). Interindividual variability, assumed to have log‐normal distribution, was calculated using Equation (1). (1) θP,i=θP,typical·e^ηP,i
The residual variance was initially modeled using an additive and proportional error model (Equation 4), which accounted for […], assay error, model misspecification, and any potential data issues (eg, incorrect dose or sample collection times). (4) Yij=IPREDij×1+ε1,ij+ε2,ij
Model development continued by adding covariates in a stepwise fashion and assessing the change in objective function value (OFV). […]

[2] = test system: patients with unresectable metastatic PDAC; design: method as in PMID 35803294, PMID 36982773; details: cited from earlier work
plasma proteins = details: ref data on file; cited from earlier work
Method: (§1) Certepetide is administered as a slow intravenous push over 1 minute shortly after the administration of chemotherapy and/or immunotherapy. Certepetide is thought to be metabolized into its component amino acids, as expected for small peptides.

[3] = autoradiography; ref data on file; cited from earlier work
Method: as §1

[4] = final population PK model, reference 70 kg
[5] = interim population PK model with body weight and age on clearance, typical value

CC(=O)N[C@H]1CSSC[C@@H](C(N)=O)NC(=O)[C@H](CC(=O)O)NC(=O)[C@@H]2CCCN2C(=O)CNC(=O)[C@H](CCCCN)NC(=O)[C@H](CC(=O)O)NC(=O)CNC(=O)[C@H](CCCNC(=N)N)NC1=O [Certepetide]
Dose linearity of PK ([1]; concentration-time and dose-normalized curves at 0.2, 0.8, 1.6 and 3.2 mg/kg): linear PKs | Vc, central volume of distribution ([1]; final population PK model (2-compartment, linear elimination, NONMEM), 31 patients with metastatic PDAC, 0.2-3.2 mg/kg IV push over 1 min with nab-paclitaxel and gemcitabine, plasma LC-MS/MS, typical value, reference 70 kg): 5.87 L | Q, intercompartmental clearance ([1]; final population PK model, 31 patients with metastatic PDAC, IV, typical value): 24.9 L/h | CLR, renal clearance (dependent on CrCL) ([1]; final population PK model, 31 patients with metastatic PDAC, IV, typical value at reference CrCL 90 mL/min, purely model-derived): 4.32 L/h | Vp, peripheral volume of distribution ([1]; final population PK model, 31 patients with metastatic PDAC, IV, typical value, reference 70 kg): 10.3 L | CLNR, nonrenal clearance (independent of CrCL) ([1]; final population PK model, 31 patients with metastatic PDAC, IV, typical value, purely model-derived): 2.56 L/h | WT on Vc, effect of weight on Vc [1, 4]: 0.933 | WT on Vp, effect of weight on Vp [1, 4]: 0.879 | clearance ([1]; human, plasma, iv, interim population PK model with body weight and age on clearance, typical value, reference 70 kg, 60 years, read-out: CL, clearance (converted)): 118 mL/min | Vc, central volume of distribution ([1]; interim population PK model with body weight and age on clearance, 31 patients with metastatic PDAC, IV, typical value): 5.87 L | Q, intercompartmental clearance [1, 5]: 25.0 L/h | Vp, peripheral volume of distribution [1, 5]: 10.3 L | WT on Vc, effect of weight on Vc ([1]; interim population PK model): 0.940 | WT on Vp, effect of weight on Vp ([1]; interim population PK model): 0.885 | Patients with ≥50% reduction in CA19-9 ([2]; cycle 5, day 1, certepetide with nab-paclitaxel and gemcitabine): 20 out of 22 | Dose-limiting toxicities associated with the study drug ([2]; doses 0.2-3.2 mg/kg): no dose‐limiting toxicities | Plasma protein binding (plasma proteins): does not bind to plasma proteins | Route of elimination [3]: primarily undergoes renal elimination
